In assay [1] the test system is antibodies in sera from SARS patients (sera 1a, 1b, 2, 6, 37, 62, London, SARS-yellow, SARS-green). The format is binding, human. On the set-up: Binding of serum 6 to linear peptides of protein X1 of SARS-CoV Urbani / Binding of serum 37 to linear peptides of protein X1 of SARS-CoV Urbani / Binding of serum 6 to looped/cyclic peptide (PEPSCAN-ELISA) / Binding of serum 37 to looped/cyclic peptide (PEPSCAN-ELISA) / Binding of serum 37 to looped/cyclic peptides of protein X1 of SARS-CoV Urbani / Binding of serum 6 to linear peptides of protein X2 / Binding of serum 37 to linear peptides of protein X2 / Binding of serum 37 to looped/cyclic peptides of protein X2 of SARS-CoV Urbani / Binding of serum 6 to linear peptides of protein M of SARS-CoV Urbani / Binding of serum 37 to linear peptides of protein M of SARS-CoV Urbani / Binding of serum 6 to looped/cyclic peptides of protein M of SARS-CoV Urbani / Binding of serum 37 to looped/cyclic peptides of protein M of SARS-CoV Urbani / Binding of serum 6 to linear peptides of protein X3 of SARS-CoV Urbani / Binding of serum 37 to linear peptides of protein X3 of SARS-CoV Urbani / Binding of serum 37 to looped/cyclic peptides of protein X3 of SARS-CoV Urbani / Binding of serum 6 to linear peptides of protein X4 of SARS-CoV Urbani / Binding of serum 37 to linear peptides of protein X4 of SARS-CoV Urbani / Binding of serum 37 to looped/cyclic peptides of protein X4 of SARS-CoV Urbani / Binding of serum 6 to linear peptides of protein X5 of SARS-CoV Urbani / Binding of serum 37 to linear peptides of protein X5 of SARS-CoV Urbani / Binding of serum 37 to looped/cyclic peptides of protein X5 of SARS-CoV Urbani / Binding of serum 6 to linear peptides of protein N of SARS-CoV Urbani / Binding of serum 37 to linear peptides of protein N of SARS-CoV Urbani / Binding of serum 6 to linear peptide (PEPSCAN-ELISA) / Binding of serum 1a to looped/cyclic peptides of protein N of SARS-CoV Urbani / Binding of serum 1b to looped/cyclic peptides of protein N of SARS-CoV Urbani / Binding of serum 2 to looped/cyclic peptides of protein N of SARS-CoV Urbani / Binding of serum 6 to looped/cyclic peptides of protein N of SARS-CoV Urbani / Binding of serum 37 to looped/cyclic peptides of protein N of SARS-CoV Urbani / Binding of serum 62 to looped/cyclic peptides of protein N of SARS-CoV Urbani / Binding of serum London to looped/cyclic peptides of protein N of SARS-CoV Urbani / Binding of serum SARS-green to looped/cyclic peptides of protein N of SARS-CoV Urbani: unit not given here.

In assay [2] the test system is rabbit serum obtained by immunizing a rabbit with the SARS-CoV strain Frankfurt 1. The format is binding. On the set-up: Binding of a rabbit serum to linear peptides / Binding of a rabbit serum to looped peptides / Rabbit serum linear peptides / Rabbit serum looped peptides / Binding of a rabbit serum to linear peptides of protein N of SARS-CoV Urbani (Rabbit serum linear peptides) / Binding of a rabbit serum to looped/cyclic peptides of protein N of SARS-CoV Urbani (Rabbit serum looped peptides): unit not given here.

For assay [3], the system named is control sera (pooled serum of ten healthy LUMC hospital workers; commercial negative donor pooled serum from the Dutch bloodbank). It counts as binding, human. On the set-up: Binding of Control serum LUMC to linear peptides / Binding of Control serum Blood-bank to linear peptides / Binding of Control serum LUMC to looped peptides / Binding of Control Serum Blood-Bank to Looped peptides / Binding of Control serum LUMC to linear peptides of the protein M of SARS-CoV Urbani / Binding of Control serum Blood-bank to linear peptides of the protein M of SARS-CoV Urbani / Binding of Control serum LUMC to looped peptides of the protein M of SARS-CoV Urbani / Binding of Control Serum Blood-Bank to Looped peptides of the protein M of SARS-CoV Urbani: unit not given here.

Consider GNTYSTAWLCALGKV, for which, in assay [1], the “Binding of serum 1a to linear peptides of protein X5 of SARS-CoV Urbani” value was found to be 0.8, the “Binding of serum 1a to looped/cyclic peptides of protein X5 of SARS-CoV Urbani” value is listed as 0.4, the “Binding of serum 1b to linear peptides of protein X5 of SARS-CoV Urbani” value is given as 0.6 and the “Binding of serum 1b to looped/cyclic peptides of protein X5 of SARS-CoV Urbani” value came out at 0.2. In assay [1], the “Binding of serum 2 to linear peptides of protein X5 of SARS-CoV Urbani” value is 0.9, the “Binding of serum 2 to looped/cyclic peptides of protein X5 of SARS-CoV Urbani” value is listed as 0.5, the “Binding of serum 6 to linear peptides of protein X5 of SARS-CoV Urbani” value was found to be 0.6 and the “Binding of serum 6 to looped/cyclic peptides of protein X5 of SARS-CoV Urbani” value was 0.3. In addition, in assay [1], the “Binding of serum 37 to linear peptides of protein X5 of SARS-CoV Urbani” value is 0.7, the “Binding of serum 37 to looped/cyclic peptides of protein X5 of SARS-CoV Urbani” value came out at 0.5, the “Binding of serum 62 to linear peptides of protein X5 of SARS-CoV Urbani” value was 0.8 and the “Binding of serum 62 to looped/cyclic peptides of protein X5 of SARS-CoV Urbani” value is listed as 0.7. In assay [1], the “Binding of serum London to linear peptides of protein X5 of SARS-CoV Urbani” value worked out at 0.7, the “Binding of serum London to looped/cyclic peptides of protein X5 of SARS-CoV Urbani” value is listed as 0.2, the “Binding of serum SARS-green to linear peptides of protein X5 of SARS-CoV Urbani” value was 0.6 and the “Binding of serum SARS-green to looped/cyclic peptides of protein X5 of SARS-CoV Urbani” value stood at 0.3. Besides, in assay [1], the “Binding of serum SARS-yellow to linear peptides of protein X5 of SARS-CoV Urbani” value was 0.4 and the “Binding of serum SARS-yellow to looped/cyclic peptides of protein X5 of SARS-CoV Urbani” value was found to be 0.5. Besides, in assay [2], the “Rabbit serum linear peptides” value is on record as 0.9 and the “Rabbit serum looped peptides” value is recorded as 0.6. For the same sequence, in assay [3], the “Binding of Control Serum Blood-Bank to Looped peptides” value is recorded as 0.4, the “Binding of Control serum Blood-bank to linear peptides” value was determined as 0.9, the “Binding of Control serum LUMC to linear peptides” value came to 0.5 and the “Binding of Control serum LUMC to looped peptides” value was determined as 0.6.

For GTDSGFAAYNRYRIG, in assay [1], the “Binding of serum 1a to linear peptides of protein M of SARS-CoV Urbani” value turned out to be 0.6, the “Binding of serum 1a to looped/cyclic peptides of protein M of SARS-CoV Urbani” value is 0.8, the “Binding of serum 1b to linear peptides of protein M of SARS-CoV Urbani” value is 0.4 and the “Binding of serum 1b to looped/cyclic peptides of protein M of SARS-CoV Urbani” value is given as 0.5. In addition, in assay [1], the “Binding of serum 2 to linear peptides of protein M of SARS-CoV Urbani” value is listed as 0.4, the “Binding of serum 2 to looped/cyclic peptides of protein M of SARS-CoV Urbani” value worked out at 0.6, the “Binding of serum 6 to linear peptides of protein M of SARS-CoV Urbani” value was determined as 0.7 and the “Binding of serum 6 to looped/cyclic peptides of protein M of SARS-CoV Urbani” value is on record as 0.8. Further, in assay [1], the “Binding of serum 37 to linear peptides of protein M of SARS-CoV Urbani” value amounted to 0.6, the “Binding of serum 37 to looped/cyclic peptides of protein M of SARS-CoV Urbani” value is 0.7, the “Binding of serum 62 to linear peptides of protein M of SARS-CoV Urbani” value worked out at 0.5 and the “Binding of serum 62 to looped/cyclic peptides of protein M of SARS-CoV Urbani” value came out at 0.6. In addition, in assay [1], the “Binding of serum London to linear peptides of protein M of SARS-CoV Urbani” value is listed as 0.3, the “Binding of serum London to looped/cyclic peptides of protein M of SARS-CoV Urbani” value came to 0.3, the “Binding of serum SARS-green to linear peptides of protein M of SARS-CoV Urbani” value is given as 0.4 and the “Binding of serum SARS-green to looped/cyclic peptides of protein M of SARS-CoV Urbani” value was found to be 0.4. For the same sequence, in assay [1], the “Binding of serum SARS-yellow to linear peptides of protein M of SARS-CoV Urbani” value is given as 0.2 and the “Binding of serum SARS-yellow to looped/cyclic peptides of protein M of SARS-CoV Urbani” value is listed as 0.9. For the same sequence, in assay [2], the “Rabbit serum linear peptides” value is listed as 0.2 and the “Rabbit serum looped peptides” value is 0.4. For the same sequence, in assay [3], the “Binding of Control Serum Blood-Bank to Looped peptides of the protein M of SARS-CoV Urbani” value came out at 0.6, the “Binding of Control serum Blood-bank to linear peptides of the protein M of SARS-CoV Urbani” value was found to be 0.7, the “Binding of Control serum LUMC to linear peptides of the protein M of SARS-CoV Urbani” value came out at 0.5 and the “Binding of Control serum LUMC to looped peptides of the protein M of SARS-CoV Urbani” value is 0.7.

Consider HGYFTEVYYQLESTQ, for which, in assay [1], the “Binding of serum 1a to linear peptides of protein X1 of SARS-CoV Urbani” value is recorded as 0.6, the “Binding of serum 1a to looped/cyclic peptides of protein X1 of SARS-CoV Urbani” value came out at 0.5, the “Binding of serum 1b to linear peptides of protein X1 of SARS-CoV Urbani” value is on record as 0.4 and the “Binding of serum 1b to looped/cyclic peptides of protein X1 of SARS-CoV Urbani” value was found to be 0.4. Moreover, in assay [1], the “Binding of serum 2 to linear peptides of protein X1 of SARS-CoV Urbani” value stood at 0.4, the “Binding of serum 2 to looped/cyclic peptides of protein X1 of SARS-CoV Urbani” value amounted to 0.4, the “Binding of serum 6 to linear peptides of protein X1 of SARS-CoV Urbani” value is listed as 0.3 and the “Binding of serum 6 to looped/cyclic peptides of protein X1 of SARS-CoV Urbani” value stood at 0.3. Moreover, in assay [1], the “Binding of serum 37 to linear peptides of protein X1 of SARS-CoV Urbani” value is 0.4, the “Binding of serum 37 to looped/cyclic peptides of protein X1 of SARS-CoV Urbani” value was 0.5, the “Binding of serum 62 to linear peptides of protein X1 of SARS-CoV Urbani” value amounted to 0.4 and the “Binding of serum 62 to looped/cyclic peptides of protein X1 of SARS-CoV Urbani” value was 0.5. In addition, in assay [1], the “Binding of serum London to linear peptides of protein X1 of SARS-CoV Urbani” value stood at 0.2, the “Binding of serum London to looped/cyclic peptides of protein X1 of SARS-CoV Urbani” value came out at 0.2, the “Binding of serum SARS-green to linear peptides of protein X1 of SARS-CoV Urbani” value amounted to 0.2 and the “Binding of serum SARS-green to looped/cyclic peptides of protein X1 of SARS-CoV Urbani” value amounted to 0.3. For the same sequence, in assay [1], the “Binding of serum SARS-yellow to linear peptides of protein X1 of SARS-CoV Urbani” value turned out to be 0.0 and the “Binding of serum SARS-yellow to looped/cyclic peptides of protein X1 of SARS-CoV Urbani” value is listed as 0.4. In assay [2], the “Binding of a rabbit serum to linear peptides” value was 0.1 and the “Binding of a rabbit serum to looped peptides” value amounted to 0.5. For the same sequence, in assay [3], the “Binding of Control Serum Blood-Bank to Looped peptides” value turned out to be 0.5, the “Binding of Control serum Blood-bank to linear peptides” value is given as 0.4, the “Binding of Control serum LUMC to linear peptides” value was 0.3 and the “Binding of Control serum LUMC to looped peptides” value was 0.5.

Regarding HITMTTVYHITVSQI, in assay [1], the “Binding of serum 1a to linear peptides of protein X2” value turned out to be 0.6, the “Binding of serum 1a to looped/cyclic peptides of protein X2 of SARS-CoV Urbani” value came to 0.6, the “Binding of serum 1b to linear peptides of protein X2” value amounted to 0.6 and the “Binding of serum 1b to looped/cyclic peptides of protein X2 of SARS-CoV Urbani” value was determined as 0.6. Further, in assay [1], the “Binding of serum 2 to linear peptides of protein X2” value is given as 0.5, the “Binding of serum 2 to looped/cyclic peptides of protein X2 of SARS-CoV Urbani” value is recorded as 0.3, the “Binding of serum 6 to linear peptides of protein X2” value was found to be 0.4 and the “Binding of serum 6 to looped/cyclic peptides of protein X2 of SARS-CoV Urbani” value was 0.3. For the same sequence, in assay [1], the “Binding of serum 37 to linear peptides of protein X2” value was determined as 0.6, the “Binding of serum 37 to looped/cyclic peptides of protein X2 of SARS-CoV Urbani” value amounted to 0.6, the “Binding of serum 62 to linear peptides of protein X2” value came to 0.3 and the “Binding of serum 62 to looped/cyclic peptides of protein X2 of SARS-CoV Urbani” value was found to be 0.7. In addition, in assay [1], the “Binding of serum London to linear peptides of protein X2” value is 0.4, the “Binding of serum London to looped/cyclic peptides of protein X2 of SARS-CoV Urbani” value was 0.2, the “Binding of serum SARS-green to linear peptides of protein X2” value is 0.2 and the “Binding of serum SARS-green to looped/cyclic peptides of protein X2 of SARS-CoV Urbani” value came out at 0.4. For the same sequence, in assay [1], the “Binding of serum SARS-yellow to linear peptides of protein X2” value stood at 0.7 and the “Binding of serum SARS-yellow to looped/cyclic peptides of protein X2 of SARS-CoV Urbani” value is listed as 0.5. Further, in assay [2], the “Binding of a rabbit serum to linear peptides” value was 0.7 and the “Binding of a rabbit serum to looped peptides” value is reported as 0.4. Besides, in assay [3], the “Binding of Control Serum Blood-Bank to Looped peptides” value was 0.7, the “Binding of Control serum Blood-bank to linear peptides” value amounted to 0.5, the “Binding of Control serum LUMC to linear peptides” value came to 0.5 and the “Binding of Control serum LUMC to looped peptides” value is recorded as 0.6.
